Results reported in patent US11433045B2, “Treatment of metabolic disorders in canine animals” (Boehringer Ingelheim Vetmedica GmbH, priority 2014, dated 2022).

Settings: various environmental conditions and during production of a medicament

N#Cc1ccc([C@@H]2O[C@H](CO)[C@@H](O)[C@H](O)[C@H]2O)cc1Cc1ccc(C2CC2)cc1.O=C(O)[C@@H]1CCCN1
physical and chemical stability: high physical and chemical stability
